In US20220095618A1, “HERBICIDAL COMPOSITIONS” (SYNGENTA CROP PROTECTION AG, priority 2019, published 2022):

What was measured:
Experiment in all cases: Post-emergence efficacy of compounds of Formula (I) (B1), glasshouse
Type in all cases: in vivo
[1] = system: Euphorbia heterophylla (EPHHL); details: Euphorbia heterophylla, post-emergence, 312 h, Application Rate 500 g/Ha; evaluated after 13 days; read-out: Control of EPHHL after post-emergence application (100=total damage to plant; 0=no damage to plant)
Procedure: (§1) Seeds of a variety of test species were sown in standard Iaom-based soil in pots:— Ipomoea hederacea (IPOHE), Euphorbia heterophylla (EPHHL), Chenopodium album (CHEAL), Amaranthus palmeri (AMAPA), Lolium perenne (LOLPE), Digitaria sanguinalis (DIGSA), Eleusine indica (ELEIN), Echinochloa crus-galli (ECHCG), Setaria faberi (SETFA). After cultivation for 14 days (post-emergence) under controlled conditions in a glasshouse (at 24/16° C., day/night; 14 hours light; 65% humidity), the plants were sprayed with an aqueous spray solution derived from the dissolution of the technical active ingredient Formula (I) in a small amount of acetone and a special solvent and emulsifier mixture referred to as IF50 (11.12% Emulsogen EL360 TM+44.44% N-methylpyrrolidone+44.44% Dowanol DPM glycol ether), to create a 50 g/I solution which was then diluted to required concentration using 0.25% or 1% Empicol ESC70 (Sodium lauryl ether sulphate)+1% ammonium sulphate as diluent. The delivery of the aqueous spray solution was via a laboratory track sprayer which delivered the aqueous spray composition at a rate of 200 litres per hectare, using a flat fan nozzle (Teejet 11002VS) and an application volume of 200 litre/ha (at 2 bar).
(§2) The test plants were then grown in a glasshouse under controlled conditions (at 24/16° C., day/night; 14 hours light; 65% humidity) and watered twice daily. After 13 days the test was evaluated (100=total damage to plant; 0=no damage to plant).

[2] = system: Eleusine indica (ELEIN); details: Application Rate 500 g/Ha, evaluated after 13 days; for pest or weed control at 500 g/ha: Eleusine indica, post-emergence, 312 h, read-out: Control of ELEIN after post-emergence application (100=total damage to plant; 0=no damage to plant)
Procedure: as §1, §2

[3] = system: Chenopodium album (CHEAL); details: Chenopodium album, post-emergence, 312 h, Application Rate 500 g/Ha; evaluated after 13 days; read-out: Control of CHEAL after post-emergence application (100=total damage to plant; 0=no damage to plant)
Procedure: as §1, §2

[4] = system: Amaranthus palmeri (AMAPA); details: Amaranthus palmeri, post-emergence, 312 h; Application Rate 500 g/Ha; evaluated after 13 days; read-out: Control of AMAPA after post-emergence application (100=total damage to plant; 0=no damage to plant)
Procedure: as §1, §2

[5] = system: Setaria faberi (SETFA); details: Setaria faberi, post-emergence, 312 h, Application Rate 500 g/Ha; evaluated after 13 days; read-out: Control of SETFA after post-emergence application (100=total damage to plant; 0=no damage to plant)
Procedure: as §1, §2

[6] = system: Ipomoea hederacea (IPOHE); details: Application Rate 500 g/Ha, evaluated after 13 days; for pest or weed control at 500 g/ha: Ipomoea hederacea, post-emergence, 312 h, read-out: Control of IPOHE after post-emergence application (100=total damage to plant; 0=no damage to plant)
Procedure: as §1, §2

[7] = system: Echinochloa crus-galli (ECHCG); details: Echinochloa crus-galli, post-emergence, 312 h, Application Rate 500 g/Ha; evaluated after 13 days; read-out: Control of ECHCG after post-emergence application (100=total damage to plant; 0=no damage to plant)
Procedure: as §1, §2

[8] = system: Lolium perenne (LOLPE); details: Application Rate 500 g/Ha, evaluated after 13 days; for pest or weed control at 500 g/ha: Lolium perenne, post-emergence, 312 h, read-out: Control of LOLPE after post-emergence application (100=total damage to plant; 0=no damage to plant)
Procedure: as §1, §2

[9] = system: Digitaria sanguinalis (DIGSA); details: Digitaria sanguinalis, post-emergence, 312 h; Application Rate 500 g/Ha; evaluated after 13 days; read-out: Control of DIGSA after post-emergence application (100=total damage to plant; 0=no damage to plant)
Procedure: as §1, §2

Structure (SMILES) | pest or weed control at 500 g/ha [1] [%] | pest or weed control at 500 g/ha [2] [%] | pest or weed control at 500 g/ha [3] [%] | pest or weed control at 500 g/ha [4] [%] | pest or weed control at 500 g/ha [5] [%] | pest or weed control at 500 g/ha [6] [%] | pest or weed control at 500 g/ha [7] [%] | pest or weed control at 500 g/ha [8] [%] | pest or weed control at 500 g/ha [9] [%] | Control of ELEIN after post-emergence application (100=total damage to plant; 0=no damage to plant) [2] | Control of IPOHE after post-emergence application (100=total damage to plant; 0=no damage to plant) [6] | Control of LOLPE after post-emergence application (100=total damage to plant; 0=no damage to plant) [8]
O=S(=O)([O-])CC[n+]1ccc(-c2ncccn2)cn1 [Compound 1.001, 2-(4-pyrimidin-2-ylpyridazin-1-ium-1-yl)ethanesulfonate] | 100 | 100 | 100 | 100 | 100 | 100 | 70 | 70 | 100 |  |  | 
N#C[N-]C(=O)CC[n+]1ccc(-c2ncccn2)cn1 [Compound 1.033] | 100 | 100 | 100 | 100 | 90 | 50 | 90 | 90 | 100 |  |  | 
O=C(O)CC[n+]1ccc(-c2ccncn2)cn1 [Compound 1.011] | 100 | 100 | 100 | 100 | 100 | 100 | 90 | 70 | 90 |  |  | 
Cl.O=C(O)CC[n+]1ccc(-c2cccnn2)cn1.[Cl-] [Compound 1.034, 3-(4-pyridazin-1-ium-3-ylpyridazin-1-ium-1-yl)propanoic acid dichloride] | 100 |  | 100 | 100 | 100 |  | 100 |  | 100 | 100 | 60 | 90
O=S(=O)([O-])CC[n+]1ccc(-c2ccncc2)cn1 [Compound 1.007] | 40 | 100 | 100 | 100 | 70 | 30 | 80 | 90 | 100 |  |  | 
O=S(=O)([O-])CC(O)C[n+]1ccc(-c2ncccn2)cn1 (stereo not drawn) [Compound 1.028] | 80 | 100 | 90 | 100 | 100 | 30 | 100 | 70 | 90 |  |  | 
N[C@H](CC[n+]1ccc(-c2ncccn2)cn1)C(=O)O [Compound 1.029, [(1R)-1-carboxy-3-(4-pyrimidin-2-ylpyridazin-1-ium-1-yl)propyl]-ammonium 2,2,2-trifluoroacetate] | 90 | 100 | 100 | 100 | 100 | 90 | 60 | 20 | 90 |  |  | 
